Among the data in patent US20090221642A1, “MUSCARINIC RECEPTOR AGONISTS, COMPOSITIONS, METHODS OF TREATMENT THEREOF, AND PROCESSES FOR PREPARATION THEREOF-176” (AstraZeneca AB, priority 2008, published 2009) are EC50 values, retold here.

As a reminder, the EC50 is the concentration giving half of the maximal effect.

In assay [1] the target is T1, hM3 (human Muscarinic receptor subtype 3) (Homo sapiens, UniProt P20309).
T1 construct: expressed in transfected cells; host or cells: CHO cells (Chinese hamster ovary cells, ATCC)
As to the kind of experiment: Human M3 calcium mobilization FLIPR assay. The conditions noted are these: hM3 expressed in CHO cells, intracellular Ca2+ release, read-out: hM3 EC50. Type of assay: cell-based. The method, then: Human M1, rat M1, human M3 and human M5 Calcium Mobilization FLIPR™ Assay
The compound activity in the present invention (EC50 or IC50) is measured using a 384 plate-based imaging assay that monitors drug induced intracellular Ca^2+ release in whole cells. Activation of hM1 (human Muscarinic receptor subtype 1, gene bank access NM_000738), rM1 (rat Muscarinic receptor subtype 1, gene bank access NM_080773), hM3 (human Muscarinic receptor subtype 3, gene bank access NM_000740NM_000740) and hM5 (human Muscarinic receptor subtype 5, gene bank access NM_0121258), receptors expressed in CHO cells (Chinese hamster ovary cells, ATCC) is quantified in a Molecular Devices FLIPR II™ instrument as an increase in fluorescent signal. Inhibition of hM3 and hM5 by compounds is determined by the decrease in fluorescent signal in response to 2 nM acetylcholine activation.
Prior to experiment, the cell culture medium is removed from the plates by inversion. […] Plates are incubated at 37° C. for 60 minutes prior to start the experiment. The incubation is terminated by washing the cells four times in assay buffer, leaving a residual 25 μl buffer per well. Cell plates are then transferred to the FLIPR, ready for compound additions.
The day of experiment, acetylcholine and compounds are diluted in assay buffer in three-fold concentration range (10 points serial dilution) for addition by FLIPR instrument. For all calcium assays, a baseline reading is taken for 10 seconds followed by the addition of 12.5 μl of compounds, resulting in a total well volume of 37.5 μl. Data is collected every second for 60 pictures and then every 6 seconds for 20 pictures prior to the addition of agonist. For hM3 and hM5, before agonist addition, a second baseline reading is taken for 10 seconds followed by the addition of 12.5 μl of agonist or buffer, producing a final volume of 50 μl. After agonist stimulation, the FLIPR continues to collect data every second for 60 pictures and then every 6 seconds for 20 pictures. The fluorescence emission is read using filter 1 (emission 510-570 nm) by the FLIPR on board CCD camera.
Calcium mobilization output data are calculated as the maximal relative fluorescence unit (RFU) minus the minimal value for both compound and agonist reading frame (except for hM1 and rM1 using only the maximal RFU). Data are analyzed using sigmoidal fits of a non-linear curve-fitting program (XLfit version 4.2.2 Excel add-in version 4.2.2 build 18 math 1Q version 2.1.2 build 18). All pEC50 and plC50 values are reported as arithmetic means ±standard error of mean of ‘n’ independent experiments.
(In general: Calcium flux is commonly read through the fluorescence of an indicator in the cells.)

Assay [2] has as its target T2, cloned human M4 receptor (human Muscarinic receptor subtype 4) (Homo sapiens, UniProt P08173).
T2 construct: purchased Perkin-Elmer RBHM4M; host or cells: Chinese hamster ovary cells (CHO) membranes
T2 sequence (P08173 1-479): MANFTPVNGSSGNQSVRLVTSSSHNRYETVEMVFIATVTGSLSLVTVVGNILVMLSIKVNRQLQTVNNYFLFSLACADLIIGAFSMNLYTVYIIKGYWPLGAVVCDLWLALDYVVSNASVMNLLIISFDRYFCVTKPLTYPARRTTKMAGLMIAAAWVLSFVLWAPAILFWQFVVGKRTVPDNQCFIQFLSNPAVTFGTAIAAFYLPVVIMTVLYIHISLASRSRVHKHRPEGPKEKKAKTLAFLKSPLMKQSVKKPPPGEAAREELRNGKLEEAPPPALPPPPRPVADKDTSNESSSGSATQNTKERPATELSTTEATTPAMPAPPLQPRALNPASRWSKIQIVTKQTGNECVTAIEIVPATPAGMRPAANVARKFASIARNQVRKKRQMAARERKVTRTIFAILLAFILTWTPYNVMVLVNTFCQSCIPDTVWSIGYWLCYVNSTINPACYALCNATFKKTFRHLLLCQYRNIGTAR
As to the kind of experiment: hM4 receptor GTPγS binding. Type of assay: biochemical. The conditions noted are these: CHO cell membranes expressing hM4, [35S]GTPγS binding. How it is done:
hM4 Receptor GTPγS Binding
Membranes produced from Chinese hamster ovary cells (CHO) expressing the cloned human M4 receptor (human Muscarinic receptor subtype 4, gene bank access NM_000741), are obtained from Perkin-Elmer (RBHM4M). The membranes are thawed at 37° C., passed 3 times through a 23-gauge blunt-end needle, diluted in the GTPγS binding buffer (50 mM Hepes, 20 mM NaOH, 100 mM NaCl, 1 mM EDTA, 5 mM MgCl2, pH 7.4, 100 μM DTT). The EC50, IC50 and Emax of the compounds of the invention are evaluated from 10-point dose-response curves (three fold concentration range) done in 60 μl in 384-well non-specific binding surface plate (Corning). Ten microliters from the dose-response curves plate (5× concentration) are transferred to another 384 well plate containing 25 μl of the following: 10 μg of hM4 membranes, 500 μg of Flashblue beads (Perkin-Elmer) and GDP 40 μM. An additional 15 μl containing 3.3× (60,000 dpm) of GTPγ^35S (0.4 nM final) are added to the wells resulting in a total well volume of 50 μl. Basal and maximal stimulated [^35S]GTPγS binding are determined in absence and presence of 30 μM final of acetylcholine agonist. The membranes/beads mix are pre-incubated for 15 minutes at room temperature with 40 μM GDP prior to distribution in plates (20 μM final). The reversal of acetylcholine-induced stimulation (10 μM final) of [^35S]GTPγS binding is used to assay the antagonist properties (IC50) of the compounds. The plates are incubated for 60 minutes at room temperature then centrifuged at 400 rpm for 5 minutes. The radioactivity (cpm) is counted in a Trilux (Perkin-Elmer).
Values of EC50, IC50 and Emax are obtained using sigmoidal fits of a non-linear curve-fitting program (XLfit version 4.2.2 Excel add-in version 4.2.2 build 18 math 1Q version 2.1.2 build 18) of percent stimulated [^35S]GTPγS binding vs. log(molar ligand). All pEC50 and plC50 values are reported as arithmetic means ±standard error of mean of ‘n’ independent experiments.

The structures appear in SMILES notation. Where two headings read alike, the source gives them in different places.

T1 sequence (P20309 whole entry): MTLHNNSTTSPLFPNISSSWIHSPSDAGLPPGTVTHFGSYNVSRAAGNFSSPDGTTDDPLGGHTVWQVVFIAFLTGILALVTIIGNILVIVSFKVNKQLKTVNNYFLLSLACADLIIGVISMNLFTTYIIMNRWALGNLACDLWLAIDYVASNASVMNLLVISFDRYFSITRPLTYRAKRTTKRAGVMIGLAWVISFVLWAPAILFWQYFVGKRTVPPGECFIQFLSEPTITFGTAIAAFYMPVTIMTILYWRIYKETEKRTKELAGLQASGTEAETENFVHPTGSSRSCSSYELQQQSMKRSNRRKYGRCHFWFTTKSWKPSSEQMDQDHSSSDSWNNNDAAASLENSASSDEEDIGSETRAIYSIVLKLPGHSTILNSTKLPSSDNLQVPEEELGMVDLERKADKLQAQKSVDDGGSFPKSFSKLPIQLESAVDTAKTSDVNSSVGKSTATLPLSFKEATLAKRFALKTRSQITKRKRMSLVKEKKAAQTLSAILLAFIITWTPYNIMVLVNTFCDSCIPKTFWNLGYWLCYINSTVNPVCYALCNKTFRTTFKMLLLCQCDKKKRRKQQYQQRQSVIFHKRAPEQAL

`CC1(N2CCC(n3c(=O)[nH]c4ccccc43)CC2)CCN(C(=O)OCCF)C1` (racemic) [Example 4, 2-fluoroethyl 3-methyl-3-(4-(2-oxo-2,3-dihydro-1H-benzo[d]imidazol-1-yl)piperidin-1-yl)pyrrolidine-1-carboxylate]: the EC50 is more than 40 µM in assay [1] and 4380 nM in assay [2] (read-out: hM4 EC50).

Take `CCOC(=O)N1CCC(C)(N2CCC(n3c(=O)[nH]c4cc(F)ccc43)CC2)C1` (single isomer, unassigned) [Example 7, ethyl 3-(4-(5-fluoro-2-oxo-2,3-dihydro-1H-benzo[d]imidazol-1-yl)piperidin-1-yl)-3-methylpyrrolidine-1-carboxylate]: the EC50 was more than 40 µM in assay [1] and more than 24400 nM in assay [2] (read-out: hM4 EC50).

For `Cc1ccc2c(c1)[nH]c(=O)n2C1CCN(C2(C)CCN(C(=O)OC(C)C)C2)CC1` (single isomer, unassigned) [Example 15, isopropyl 3-methyl-3-(4-(5-methyl-2-oxo-2,3-dihydro-1H-benzo[d]imidazol-1-yl)piperidin-1-yl)pyrrolidine-1-carboxylate], the results for the EC50 in assay [1] and in assay [2] (read-out: hM4 EC50) were more than 40 µM and more than 90000 nM, respectively.

With `CC#CCOC(=O)N1CCC(C)(N2CCC(n3c(=O)[nH]c4ccc(C)cc43)CC2)C1` (single isomer, unassigned) [Example 20, but-2-ynyl 3-methyl-3-(4-(6-methyl-2-oxo-2,3-dihydro-1H-benzo[d]imidazol-1-yl)piperidin-1-yl)pyrrolidine-1-carboxylate], the EC50 is 0.535 µM in assay [1] and 97 nM in assay [2] (read-out: hM4 EC50).

In the case of `CC1(N2CCC(n3c(=O)[nH]c4cc(F)ccc43)CC2)CCN(C(=O)OCCF)C1` (single isomer, unassigned) [Example 24, 2-fluoroethyl 3-(4-(5-fluoro-2-oxo-2,3-dihydro-1H-benzo[d]imidazol-1-yl)piperidin-1-yl)-3-methylpyrrolidine-1-carboxylate], the values for the EC50 in assay [1] and in assay [2] (read-out: hM4 EC50) were more than 26.5 µM and 5090 nM, respectively.

Turning to `Cc1ccc2[nH]c(=O)n(C3CCN(C4(C)CCN(C(=O)OCCF)C4)CC3)c2c1` (single isomer, unassigned) [Example 28, 2-fluoroethyl 3-methyl-3-(4-(6-methyl-2-oxo-2,3-dihydro-1H-benzo[d]imidazol-1-yl)piperidin-1-yl)pyrrolidine-1-carboxylate], the EC50 in assay [1] was more than 24.3 µM; in assay [2] (read-out: hM4 EC50) it was 8390 nM.

Turning to `C#CCOC(=O)N1CCC(C)(N2CCC(n3c(=O)[nH]c4ccc(C)cc43)CC2)C1` (single isomer, unassigned) [Example 41, prop-2-ynyl 3-methyl-3-(4-(6-methyl-2-oxo-2,3-dihydro-1H-benzo[d]imidazol-1-yl)piperidin-1-yl)pyrrolidine-1-carboxylate], the EC50 in assay [1] is more than 40 µM; in assay [2] (read-out: hM4 EC50), 8800 nM.

Consider `C#CCOC(=O)N1CCC(C)(N2CCC(n3c(=O)[nH]c4ccc(C)cc43)CC2)C1` (single isomer, unassigned) [Example 43, prop-2-ynyl 3-methyl-3-(4-(6-methyl-2-oxo-2,3-dihydro-1H-benzo[d]imidazol-1-yl)piperidin-1-yl)pyrrolidine-1-carboxylate], for which the EC50 in assay [1] was 0.553 µM; in assay [2] (read-out: hM4 EC50), 460 nM.

Turning to `COC(=O)N1CCC(C)(N2CCC(n3c(=O)[nH]c4ccc(C)cc43)CC2)C1` (single isomer, unassigned) [Example 45, methyl 3-methyl-3-(4-(6-methyl-2-oxo-2,3-dihydro-1H-benzo[d]imidazol-1-yl)piperidin-1-yl)pyrrolidine-1-carboxylate], the EC50 is more than 40 µM in assay [1] and 11200 nM in assay [2] (read-out: hM4 EC50).

`COC(=O)N1CCC(C)(N2CCC(n3c(=O)[nH]c4cc(C)ccc43)CC2)C1` (single isomer, unassigned) [Example 48, methyl 3-methyl-3-(4-(5-methyl-2-oxo-2,3-dihydro-1H-benzo[d]imidazol-1-yl)piperidin-1-yl)pyrrolidine-1-carboxylate]: the EC50 was more than 40 µM in assay [1] and 3480 nM in assay [2] (read-out: hM4 EC50).

On to `CCOC(=O)N1CCC(C)(N2CCC(n3c(=O)[nH]c4ccc(F)cc43)CC2)C1` (single isomer, unassigned) [Example 49, ethyl 3-(4-(6-fluoro-2-oxo-2,3-dihydro-1H-benzo[d]imidazol-1-yl)piperidin-1-yl)-3-methylpyrrolidine-1-carboxylate], for which the EC50 in assay [1] was more than 40 µM; in assay [2] (read-out: hM4 EC50), 9480 nM.

Consider `CCOC(=O)N1CCC(C)(N2CCC(n3c(=O)[nH]c4ccc(F)cc43)CC2)C1` (single isomer, unassigned) [Example 50, ethyl 3-(4-(6-fluoro-2-oxo-2,3-dihydro-1H-benzo[d]imidazol-1-yl)piperidin-1-yl)-3-methylpyrrolidine-1-carboxylate], for which the EC50 was more than 40 µM in assay [1] and 2020 nM in assay [2] (read-out: hM4 EC50).

In turn, `COC(=O)N1CCC(C)(N2CCC(N3C(=O)Cc4cc(F)c(C)cc43)CC2)C1` (single isomer, unassigned) [Example 84, methyl 3-(4-(5-fluoro-6-methyl-2-oxoindolin-1-yl)piperidin-1-yl)-3-methylpyrrolidine-1-carboxylate] displayed an EC50 in assay [2] (hM4 EC50 (nM)) of 2540 nM.

On to `COC(=O)N1CCC(C)(N2CCC(n3c(=O)[nH]c4cc(F)ccc43)CC2)C1` (stereo not shown) [Example 8, methyl 3-(4-(5-fluoro-2-oxo-2,3-dihydro-1H-benzo[d]imidazol-1-yl)piperidin-1-yl)-3-methylpyrrolidine-1-carboxylate], for which the EC50 in assay [2] (read-out: hM4 EC50) came out at 5210 nM.

As for `CCOC(=O)N1CCC(C)(N2CCC(n3c(=O)[nH]c4ccc(C)cc43)CC2)C1` (stereo not shown) [Example 16, ethyl 3-methyl-3-(4-(6-methyl-2-oxo-2,3-dihydro-1H-benzo[d]imidazol-1-yl)piperidin-1-yl)pyrrolidine-1-carboxylate], the EC50 in assay [2] (read-out: hM4 EC50) worked out at 1700 nM.

In the case of `COC(=O)N1CCC(C)(N2CCC(n3c(=O)[nH]c4ccc(C)cc43)CC2)C1` (stereo not shown) [Example 17, methyl 3-methyl-3-(4-(6-methyl-2-oxo-2,3-dihydro-1H-benzo[d]imidazol-1-yl)piperidin-1-yl)pyrrolidine-1-carboxylate], in assay [2] (read-out: hM4 EC50), the EC50 turned out to be 3150 nM.
